Assay results reported in ChEMBL document CHEMBL1153252, “Anti-human immunodeficiency virus activity and cytotoxicity of derivatized buckminsterfullerenes” (Bioorg Med Chem Lett, 1996).

What was measured:
[1] = Compound was evaluated for the toxicity in human PBM cells; assay type: functional, cell-based
[2] = Compound was evaluated for the anti-HIV-1 activity in human peripheral blood mononuclear cells infected with HIV-1LA1.; assay type: functional
[3] = test system: Vero; experiment: Compound was evaluated for the toxicity in rapidly dividing Vero cells (African Green monkeys kidney cells); assay type: functional, cell-based; conditions: Chlorocebus sabaeus

O=C(O)CCC(=O)OC1CCC23c4c5c6c7c8c9c%10c%11c%12c%13c%14c%15c%16c%17c%18c(c9c6c6c%18c9c%17c%17c%15c%15c%18c%14c%14c%12c%12c%11c8c(c8c%11c2c2c4c4c(c56)c9c5c4c4c2c2c%11c(c8%12)c%14c%18c2c4c%15c%175)C73C1)C%10C%13%16 (centres undefined)
IC50 [1]: > 100 µM | EC50 ([2]; Homo sapiens): 6.3 µM | IC50 [3]: > 100 µM

O=C(O)CO/N=C1\CCC23c4c5c6c7c8c9c%10c%11c%12c%13c%14c%15c%16c%17c%18c(c9c6c6c%18c9c%17c%17c%15c%15c%18c%14c%14c%12c%12c%11c8c(c8c%11c2c2c4c4c(c56)c9c5c4c4c2c2c%11c(c8%12)c%14c%18c2c4c%15c%175)C73C1)C%10C%13%16 (centres undefined)
IC50 [1]: > 100 µM | EC50 ([2]; Homo sapiens): 2.9 µM | IC50 [3]: > 100 µM

O=C(CCCc1ccc(C2(c3ccccc3)C34c5c6c7c8c9c%10c(c%11c%12c3c3c5c5c%13c6c6c7c7c9c9c%14c%10c%10c%11c%11c%12c%12c3c3c5c5c%13c%13c6c6c7c9c7c9c%14c%10c%10c%11c%11c%12c3c3c5c5c%13c6c7c6c9c%10c%11c3c56)C824)cc1)NC(CO)(CO)CO (centres undefined)
IC50 [1]: > 100 µM | EC50 ([2]; Homo sapiens): 2.5 µM | IC50 [3]: > 100 µM

c1ccc(C2(c3ccc4c(c3)OCCOCCOCCOCCOCCO4)C34C5=C6C7=C8Cc9c%10c8c8c%11c%12c%13c%14c%15c(c6c6c%16c%17c(c%18c%19c3c(c3c9c9c%20c%10c%11c%10c%11c%12c%12c%14c(c%15%16)c%14c%17c%15c%18c%16c%19c3c9c3c%16c9c%15c%14c%12c%11c9c3c%20%10)C5)C642)C7C8%13)cc1 (centres undefined)
IC50 [1]: > 100 µM | EC50 ([2]; Homo sapiens): 137 µM | IC50 [3]: > 100 µM

O=C(O)CO/N=C1\C=CC23c4c5c6c7c8c9c%10c%11c%12c%13c%14c%15c%16c%17c%18c(c9c6c6c%18c9c%17c%17c%15c%15c%18c%14c%14c%12c%12c%11c8c(c8c%11c2c2c4c4c(c56)c9c5c4c4c2c2c%11c(c8%12)c%14c%18c2c4c%15c%175)C73C1)C%10C%13%16 (centres undefined)
IC50 [1]: > 100 µM | EC50 ([2]; Homo sapiens): 7.3 µM | IC50 [3]: 33.9 µM

COC1C/C(=N\OCC(=O)O)CC23c4c5c6c7c8c9c(c%10c%11c2c2c4c4c%12c5c5c6c6c8c8c%13c9c9c%10c%10c%11c%11c2c2c4c4c%12c%12c5c5c6c8c6c8c%13c9c9c%10c%10c%11c2c2c4c4c%12c5c6c5c8c9c%10c2c45)C713 (centres undefined)
IC50 [1]: > 100 µM | EC50 ([2]; Homo sapiens): 0.9 µM | IC50 [3]: > 100 µM

CC12CCC/C(=N\OCC(=O)O)C1C13c4c5c6c7c8c9c%10c%11c%12c%13c%14c%15c(c6c6c4c4c%16c%17c%18c(c%19c%20c1c5c8c1c%20c5c%19c8c%18c%18c%19c%17c%17c4c6c%15c4c%14c6c%12c%12c%14c%11c(c91)c5c%14c8c%18c%12c6c%19c4%17)C%1623)C7C%10%13 (centres undefined)
IC50 [1]: > 100 µM | EC50 ([2]; Homo sapiens): 21.7 µM | IC50 [3]: > 100 µM

CC1C=CC(COC(=O)CCC(=O)O)C23c4c5c6c7c8c9c%10c%11c%12c%13c%14c%15c%16c%17c%18c(c9c6c6c%18c9c%17c%17c%15c%15c%18c%14c%14c%12c%12c%11c8c(c8c%11c2c2c4c4c(c56)c9c5c4c4c2c2c%11c(c8%12)c%14c%18c2c4c%15c%175)C713)C%10C%13%16 (centres undefined)
IC50 [1]: > 100 µM | EC50 ([2]; Homo sapiens): 2.2 µM | IC50 [3]: > 100 µM

CN1CC23C4=C5Cc6c7c5c5c8c9c%10c%11c%12c(c2c2c%13c%14c%15c%16c%17c%18c%19c%20c(c6c6c%20c%20c%18c%18c%21c%17c%14c%14c(c%12%13)c%11c%11c9c9c%12c8c7c6c%12c%20c%18c9c%11c%14%21)=C6CC3(C1)C(C2%15)C61CN(C)CC%16%191)C4C5%10 (centres undefined)
IC50 [1]: > 100 µM | EC50 ([2]; Homo sapiens): 72.7 µM | IC50 [3]: > 100 µM

OC1CCC23CC4=c5c6c7c8c9c%10c%11c%12c%13c%14c%15c%16c%17c(c-8c8c%18c%17c%17c(c%19c%20c%21c%22c%23c%24c%25c%26c%27c%28c(c5c(c6%10)c5c%28c%25c(c%13c%24c%14c%22c%16c%17%21)c%115)CC%27=C(C%20C%23%26)C%192C1)C%18C3C41CC(O)CCC871)C9%15%12 (centres undefined)
IC50 [1]: > 100 µM | EC50 ([2]; Homo sapiens): 17.6 µM | IC50 [3]: > 100 µM

O=C(O)CCC(=O)NCCc1ccc(C2(c3ccc(CCNC(=O)CCC(=O)O)cc3)C34c5c6c7c8c9c5c5c%10c%11c%12c(c%13c%14c%15c%16c%17c%18c%19c%20c%21c%22c(c-%13c3c6c%22c3c7c6c7c%13c%22c%23c%24c(c9c5c5c%11c9c(c%15%12)c%16c%11c%18c(c%13c%19c7c%213)c%23c%11c9c%245)C86%22)C%14C%20%17)C%1024)cc1 (centres undefined)
IC50 [1]: > 100 µM | EC50 ([2]; Homo sapiens): 7.3 µM | IC50 [3]: > 100 µM

COC1CC(=O)CC23C4=c5c6c7c8c9c%10c%11c%12c%13c%14c%15c%16c%17c%18c%19c%20c(c%21c%22c%23c(c5c5c6c6c8c%11c8c%11c%12c%12c%14c(c%15%19)c%14c%20c%22c%15c%19c%23c5c(c68)c%19c%11c%12c%14%15)C%2112)C%18C3C1(C4)C(OC)CC(=O)CC%171C(=C9C7)C%16C%10%13 (single isomer, unassigned; isomer A)
EC50 [2]: > 100 µM

COC1CC(=O)CC23C4=c5c6c7c8c9c%10c%11c%12c%13c%14c%15c%16c%17c%18c%19c%20c(c%21c%22c%23c(c5c5c6c6c8c%11c8c%11c%12c%12c%14c(c%15%19)c%14c%20c%22c%15c%19c%23c5c(c68)c%19c%11c%12c%14%15)C%2112)C%18C3C1(C4)C(OC)CC(=O)CC%171C(=C9C7)C%16C%10%13 (stereo in doubt)
IC50 [1]: > 100 µM | EC50 [2]: 7.7 µM | IC50 [3]: > 100 µM

Cc1cn([C@H]2C[C@H](N=[N+]=[N-])[C@@H](CO)O2)c(=O)[nH]c1=O [ZIDOVUDINE]
IC50 [1]: > 100 µM | EC50 ([2]; Homo sapiens): 0.004 µM
